# “And” between values parts separate entries of the source, which are not always exact repeats. Identical values can stand only once. Like-named read-outs stand apart in the source and are kept apart here.
# Assays:
# [1] = molecular target: apoglucose oxidase (Aspergillus niger, UniProt P13006); assay: Activation of apoglucose oxidase by FAD-thyroxine conjugate; assay type: biochemical; conditions: 5.5 min, pH 7; for activity at 160 µM: 0.16 mM fenclofenac; for activity at 310 µM: 0.31 mM fenclofenac; for activity at 630 µM: 0.63 mM fenclofenac; for activity at 1250 µM: 1.25 mM fenclofenac; for activity at 2500 µM: 2.5 mM fenclofenac; for activity at 5000 µM: 5.0 mM fenclofenac; for activity at 10000 µM: 10.0 mM fenclofenac
# Protocol: In a second study, the effect of fenclofenac on the activation of apoglucose oxidase by an FAD-iodothyronine (T-4) conjugate was investigated. The activation of apoglucose oxidase was set up with different concentrations of fenclofenac and performed at 37° C. To two sets of assays containing 96 mM sodium phosphate, pH 7.0, 95 mM glucose, 1.0 mM sodium dichlorohydroxybenzene sulfonate (DHSA), 19 μg/ml peroxidase and various concentrations of sodium fenclofenac were added apoglucose oxidase, 4-aminoantipyrine, and anti(glucose oxidase) at final concentrations of 100 nM, 100 μM, 5 μl/ml respectively or 2.1 nM final concentration of an FAD-thyroxine conjugate. After preincubating the assay media for 5 min at 37° C. the FAD-thyroxine conjugate or the apoglucose oxidase reagent was added to the appropriate assay set. The absorbance at 520 nm was recorded after a 330 second incubation. The data are presented as a percentage of the absorbance recorded when no fenclofenac is present.
# [2] = tested on: antiserum to thyroxine / phosphodiesterase; assay: Enzyme substrate-labeled immunoassay for thyroxine; assay type: biochemical; conditions: 75 μl of 60 mM fenclofenac
# Protocol: The following reagents were assembled:
# Reagent A: 50 mM Bicine buffer with 0.1% sodium azide, pH 8.5
# Reagent B: 60 mM fenclofenac in 0.5N sodium hydroxide
# Reagent C: thyroxine standards with concentrations of 0, 2, 4, 6, 8, 10, 12, 16 and 20 μg/dl prepared by adding thyroxine (Sigma) to thyroxine free serum.
# Reagent D: antibody/enzyme reagent containing 50 μl antiserum per ml and 0.12 units per ml of phosphodiesterase (Sigma, Type VII) in Bicine buffer.
# Reagent E: 1.24 μM of the labeled conjugate (Part A above) in 5 mM formate, 0.1% sodium azide buffer, pH 3.5.
# The assay protocol involved adding 75 μl of Reagent B and 0.5 ml of Reagent A to a cuvette, followed by 75 μl of an appropriate Reagent C and another 0.5 ml of Reagent A, and finally 75 μl of Reagent D and a third 0.5 ml of Reagent A. After a 1 hour incubation at room temperature, the assay reaction was started by adding 75 μl of Reagent E and 0.5 ml of Reagent A to the cuvette. The fluorescence (excitation=360 nm, emission=450 nm) was measured 20 minutes after addition of Reagent E.
# [3] = tested on: rabbit antiserum to thyroxine / dihydrofolate reductase; assay: Enzyme inhibitor-labeled immunoassay for thyroxine in serum; assay type: biochemical; conditions: 0.5 mM fenclofenac in antibody reagent; for Absorbance Change per Minute: 340 nm
# Protocol: An enzyme inhibitor-labeled immunoassay (U.S. Pat. No. 4,134,792) for thyroxine in serum was conducted using fenclofenac as the TBP blocking agent. Serum standards in 40 μl aliquots containing known concentrations of thyroxine were combined with 0.2 ml of an antibody reagent consisting of 21 μl rabbit antiserum to thyroxine in 1 ml of 0.1M sodium phosphate buffer, pH 6.5, containing 0.3M potassium chloride, 0.05% sodium azide, and 0.5 mM fencolfenac. After a 30 second incubation, to each mixture was added 0.2 ml of a conjugate reagent consisting of 0.63 mg/ml NADPH (0.65 mM), 0.0175 μM of a methotrexate-thyroxine conjugate [prepared as described in the U.S. patent application filed on even date herewith, assigned to the present assignee, entitled "Methotrexate-LabeledIodothyronine Conjugates Ser. No. 318,028, which application is incorporated herein by reference] in 10 mM sodium carbonate buffer, pH 9.5. […] After a further 5 minute incubation, to each mixture was added 50 μl of 2.5 mM dihydrofolate in 0.1M Tris.HCl, pH 8.5. Forty-five (45) seconds later, the absorbance of each solution at 340 nm was read over a 1 minute period.
# [4] = tested on: rabbit antibody to thyroxine; assay: Radioimmunoassay for thyroxine in serum with fenclofenac as TBP blocking agent; assay type: binding; conditions: 0.67 mM fenclofenac
# Protocol: A radioimmunoassay for thyroxine in serum was conducted using fenclofenac as the TBP blocking agent. Serum standards in 100 μl aliquots containing known concentrations of thyroxine were combined with 290 μl of 0.1M sodium phosphate buffer, pH 6.5, an amount of fenclofenac to give a concentration of 0.67 mM in the final assay mixture, 2 μl of rabbit antibody to thyroxine, and a fixed amount of ^125 I-thyroxine (approximately 34,000 counts per minute per 100 μl in the final volume). After incubation at room temperature for 2 hours, 400 μl of 50% (w/v) polyethyleneglycol was added and the resulting precipitates collected by centrifugation. The radioactivity of each precipitate was then measured. The results are shown in Table 3 (μg/dl is micrograms per deciliter).
# [5] = Optical absorption spectra; assay type: physicochemical
# [6] = read-out: percentage of the absorbance at 520 nm without fenclofenac, Started with Apoenzyme Addition
# [7] = read-out: percentage of the absorbance at 520 nm without fenclofenac, Started with Conjugate Addition
# apoglucose oxidase, sequence (P13006 17-605): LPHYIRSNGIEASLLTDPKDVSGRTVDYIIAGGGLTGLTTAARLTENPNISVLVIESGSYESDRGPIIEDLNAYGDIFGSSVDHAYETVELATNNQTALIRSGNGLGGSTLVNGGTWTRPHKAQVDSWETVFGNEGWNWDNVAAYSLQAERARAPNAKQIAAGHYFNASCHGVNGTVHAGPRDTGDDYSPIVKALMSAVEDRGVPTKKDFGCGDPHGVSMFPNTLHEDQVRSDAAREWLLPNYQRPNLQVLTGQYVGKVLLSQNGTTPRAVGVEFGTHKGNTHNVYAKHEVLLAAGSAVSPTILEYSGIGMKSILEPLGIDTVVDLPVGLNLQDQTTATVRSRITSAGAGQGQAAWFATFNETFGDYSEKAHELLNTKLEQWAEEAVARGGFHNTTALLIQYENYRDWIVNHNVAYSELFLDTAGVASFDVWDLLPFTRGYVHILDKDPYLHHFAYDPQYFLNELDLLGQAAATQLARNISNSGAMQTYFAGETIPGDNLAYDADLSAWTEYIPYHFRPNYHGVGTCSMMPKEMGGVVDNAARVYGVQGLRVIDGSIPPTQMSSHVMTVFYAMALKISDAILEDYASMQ
smiles,measurement,setting,value
"O=C(O)Cc1ccccc1Oc1ccc(Cl)cc1Cl [Fenclofenac, 2-(2,4-dichlorophenoxy)phenylacetic acid]",activity at 160 µM,[1]; [6],100%
same,activity at 160 µM,[1]; [7],97%
same,activity at 310 µM,[1]; [6],98%
same,activity at 310 µM,[1]; [7],92%
same,activity at 630 µM,[1]; [6],97%
same,activity at 630 µM,[1]; [7],94%
same,activity at 1250 µM,[1]; [6],93%
same,activity at 1250 µM,[1]; [7],95%
same,activity at 2500 µM,[1]; [6],90%
same,activity at 2500 µM,[1]; [7],85%
same,activity at 5000 µM,[1]; [6],78%
same,activity at 5000 µM,[1]; [7],74%
same,activity at 10000 µM,[1]; [6],53%
same,activity at 10000 µM,[1]; [7],54%
same,inhibition at 2000 µM,"[1]; about 2 mM fenclofenac, FAD-thyroxine conjugate, read-out: colorimetric response diminished",8 to 10%
same,fluorescence units,"[2]; thyroxine standard 0 μg/dl, excitation 360 nm, emission 450 nm",24.9 fluorescence units
same,fluorescence units,[2]; thyroxine standard 2 μg/dl,25.5 fluorescence units
same,fluorescence units,[2]; thyroxine standard 4 μg/dl,26.4 fluorescence units
same,fluorescence units,[2]; thyroxine standard 6 μg/dl,27.2 fluorescence units
same,fluorescence units,[2]; thyroxine standard 8 μg/dl,26.7 fluorescence units
same,fluorescence units,[2]; thyroxine standard 10 μg/dl,27.1 fluorescence units
same,fluorescence units,[2]; thyroxine standard 12 μg/dl,30.0 fluorescence units
same,fluorescence units,[2]; thyroxine standard 16 μg/dl,30.1 fluorescence units
same,fluorescence units,[2]; thyroxine standard 20 μg/dl,30.8 fluorescence units
same,interference with the spectrophotometric response at 340 nm or the enzymatic reaction,[3],did not substantially interfere
same,Absorbance Change per Minute,[3]; thyroxine standard 0 μg/dL,0.1682
same,Absorbance Change per Minute,[3]; thyroxine standard 1.0 μg/dL,0.1659
same,Absorbance Change per Minute,[3]; thyroxine standard 2.5 μg/dL,0.1648
same,Absorbance Change per Minute,[3]; thyroxine standard 10. μg/dL,0.1571
same,Absorbance Change per Minute,[3]; thyroxine standard 20. μg/dL,0.1498
same,Counts per Minute in Precipitate,[4]; thyroxine standard 0 μg/dl,"23,700 Counts per Minute"
same,Counts per Minute in Precipitate,[4]; thyroxine standard 1.0 μg/dl,"21,800 Counts per Minute"
same,Counts per Minute in Precipitate,[4]; thyroxine standard 2.5 μg/dl,"17,300 Counts per Minute"
same,Counts per Minute in Precipitate,[4]; thyroxine standard 5.0 μg/dl,"14,400 Counts per Minute"
same,Counts per Minute in Precipitate,[4]; thyroxine standard 10.0 μg/dl,"10,000 Counts per Minute"
same,Counts per Minute in Precipitate,[4]; thyroxine standard 20.0 μg/dl,"7,500 Counts per Minute"
same,optical absorption above 300 nm,"[5]; 0.5 mM solution in 0.1M sodium phosphate buffer, pH 6.5",no significant absorption above 300 nanometers
same,visible color of solution,[5]; 50 mM solution in dilute sodium hydroxide,no visible color
same,λmax,[5]; in 0.1M sodium hydroxide,275 nanometers and 269 nanometers
same,λmin,[5]; in 0.1M sodium hydroxide,257 nanometers
same,"ε max (NaOH), extinction coefficient","[5]; in 0.1M sodium hydroxide, at λmax",2060 M⁻¹ cm⁻¹ and 2050 M⁻¹ cm⁻¹
same,"ε min (NaOH), extinction coefficient","[5]; in 0.1M sodium hydroxide, at λmin",1520 M⁻¹ cm⁻¹

# — patent US4468469A, “Substituted phenylacetic acids and salts as TBP blocking agents in iodothyronine immunoassays” (Miles Laboratories, Inc., priority 1982, dated 1984)
